The values that follow come from patent US20180251431A1 (VERTEX PHARMACEUTICALS INCORPORATED, priority 2016, published 2018).

Each structure is given as a SMILES string. Bounds are passed on as bounds.

The first assay deals with HEK293 cells. Briefly: HEK293 VLCFA-LPC IC50 determination (13C-labeled C26:0 LPC by UHPLC/MS). The class given is cell-based, human. Conditions: Homo sapiens, HEK293, 48 h, average of one or more replicates; 13C-labeled C26:0 LPC, 48 hours; read-out: Average HEK293 IC50. The method, boiled down:
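Suspension HEK293 cells (final 0.5 million/mL after mixing with equal volume) incubated 48 hours with compound plus 13C-acetate (1.0 mg/mL in added media), shaking at 37° C. Lipids extracted with hexane/isopropanol or methanol, C13:0 LPC standard. UHPLC/MS of 13C-labeled C26:0 LPC (638.500/104.100 m/z); IC50 by four-parameter fit.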
By IC50 is commonly meant the point on the concentration scale where inhibition reaches its midpoint. `Cc1cncnc1-n1ccc(NC(=O)C2(c3ccccc3F)CC2)n1` [Compound 360, 1-(2-fluorophenyl)-N-[1-(5-methylpyrimidin-4-yl)pyrazol-3-yl]cyclopropanecarboxamide]: the concentration for half-maximal inhibition (IC50) came to 0.069 µM.
On the same count and under the same terms, for `Cc1c(-n2ccc(NC(=O)C3(c4ccccc4F)CC3)n2)ccnc1F` [Compound 351, N-[1-(2-fluoro-3-methyl-4-pyridyl)pyrazol-3-yl]-1-(2-fluorophenyl)cyclopropanecarboxamide] the value was 0.42 µM; for `O=C(Nc1ccn(-c2cncc(C(F)(F)F)c2)n1)C1(c2ccccc2F)CC1` [Compound 316, 1-(2-fluorophenyl)-N-[1-[5-(trifluoromethyl)-3-pyridyl]pyrazol-3-yl]cyclopropanecarboxamide], more than 5 µM.
On the same count and under the same terms, for `COc1cc(-n2ccc(NC(=O)C3(c4ccccc4F)CC3)n2)cnn1` [Compound 447, 1-(2-fluorophenyl)-N-[1-(6-methoxypyridazin-4-yl)pyrazol-3-yl]cyclopropanecarboxamide] the value was more than 5 µM; for `Cc1cncc(-n2ccc(NC(=O)C3(c4ccccc4F)CC3)n2)c1` [Compound 323, 1-(2-fluorophenyl)-N-[1-(5-methyl-3-pyridyl)pyrazol-3-yl]cyclopropanecarboxamide], 0.35 µM.
Same read-out and setting: in the case of `COc1cc(-n2ccc(NC(=O)C3(c4ccccc4F)CC3)n2)cc(OC)c1OC` [Compound 321, 1-(2-fluorophenyl)-N-[1-(3,4,5-trimethoxyphenyl)pyrazol-3-yl]cyclopropanecarboxamide] it was more than 5 µM; in that of `O=C(Nc1ccn(-c2ccnc(F)c2)n1)C1(c2ccccc2)CC1(Cl)Cl` (single isomer, unassigned) [Compound 371], 0.72 µM; in that of `Cc1cc(-n2ccc(NC(=O)C3(c4ccccc4F)CC3)n2)cc(C#N)n1` [Compound 346, N-[1-(2-cyano-6-methyl-4-pyridyl)pyrazol-3-yl]-1-(2-fluorophenyl)cyclopropanecarboxamide], more than 5 µM.
`O=C(Nc1ccn(-c2ccc(O)c(F)c2)n1)C1(c2ccccc2F)CC1` [Compound 355, N-[1-(3-fluoro-4-hydroxy-phenyl)pyrazol-3-yl]-1-(2-fluorophenyl)cyclopropanecarboxamide]: the IC50 is 1.7 µM.
In the case of `O=C(Nc1ccn(-c2cc(F)c(O)c(F)c2)n1)C1(c2ccccc2F)CC1` [Compound 357, N-[1-(3,5-difluoro-4-hydroxy-phenyl)pyrazol-3-yl]-1-(2-fluorophenyl)cyclopropanecarboxamide], the IC50 is more than 5 µM.
Still for that read-out and setting: in the case of `O=C(Nc1ccn(-c2ccnc(F)c2)n1)C1(c2ccccc2)CC1(F)F` (single isomer, unassigned) [Compound 368] it was 0.032 µM.

The same assay, now with this note: Homo sapiens, HEK293, HEK293 cells; average of one or more replicates; read-out: Average HEK293 IC50.
With `O=C(Nc1ccn(-c2ccnc(F)c2)n1)C1(c2c(F)cccc2F)CC1` [Compound 266, 1-(2,6-difluorophenyl)-N-[1-(2-fluoro-4-pyridyl)pyrazol-3-yl]cyclopropanecarboxamide], the IC50 stood at 0.017 µM.
With `O=C(Cc1cccc(Cl)c1Cl)Nc1ccn(-c2ccccc2)n1` [Compound 69, 2-(2,3-dichlorophenyl)-N-(1-phenylpyrazol-3-yl)acetamide], the IC50 was found to be 5 µM.
`O=C(Cc1ccccc1)Nc1ccn(-c2cccc(F)c2)n1` [Compound 127, N-[1-(3-fluorophenyl)pyrazol-3-yl]-2-phenyl-acetamide]: the IC50 amounted to 0.81 µM.
Still for that read-out and setting: in the case of `O=C(Nc1ccn(-c2cncc(F)c2)n1)C1(c2ncc(Cl)cc2F)CC1` [Compound 498, 1-(5-chloro-3-fluoropyridin-2-yl)-N-(1-(5-fluoropyridin-3-yl)-1H-pyrazol-3-yl)cyclopropane-1-carboxamide] it was 0.47 µM; in that of `O=C(Cc1ccccc1)Nc1ccn(-c2cc(F)ccc2F)n1` [Compound 160, N-[1-(2,5-difluorophenyl)pyrazol-3-yl]-2-phenyl-acetamide], more than 5 µM; in that of `O=C(Nc1ccn(-c2ccccc2)n1)C1(c2ccccc2F)CC1` [Compound 22, 1-(2-fluorophenyl)-N-(1-phenylpyrazol-3-yl)cyclopropanecarboxamide], 0.012 µM.
The same measure, in the same setting: for `Cn1ccnc1CC(=O)Nc1ccn(-c2ccnc(F)c2)n1` [Compound 302, N-[1-(2-fluoro-4-pyridyl)pyrazol-3-yl]-2-(1-methylimidazol-2-yl)acetamide] the value was more than 5 µM.
The same measure, in the same setting: in the case of `COc1ccc(CC(=O)Nc2ccn(-c3ccccc3)n2)cc1` [Compound 45, 2-(4-methoxyphenyl)-N-(1-phenylpyrazol-3-yl)acetamide] it was more than 5 µM; in that of `Cc1cc(NC(=O)C2(c3ncccc3F)CC2)nn1-c1ccc(F)cc1F` [Compound 451, N-[1-(2,4-difluorophenyl)-5-methyl-pyrazol-3-yl]-1-(3-fluoro-2-pyridyl)cyclopropanecarboxamide], 2.4 µM; in that of `CC1CC1(C(=O)Nc1ccn(-c2cncc(F)c2)n1)c1ncccc1F` (stereo not shown) [Compound 503, 1-(3-fluoro-2-pyridyI)-N-[1-(5-fluoro-3-pyridyl)pyrazol-3-yl]-2-methyl-cyclopropanecarboxamide], 0.11 µM.
In the case of `O=C(Nc1ccn(-c2cccnc2)n1)C1(c2ccccc2F)CC1` [Compound 214, 1-(2-fluorophenyl)-N-[1-(3-pyridyl)pyrazol-3-yl]cyclopropanecarboxamide], the IC50 is 0.045 µM.
Same read-out and setting: in the case of `O=C(Nc1ccn(-c2ccnc(F)c2)n1)C1(c2cccc(F)c2)CC1` [Compound 254, 1-(3-fluorophenyl)-N-[1-(2-fluoro-4-pyridyl)pyrazol-3-yl]cyclopropanecarboxamide] it was 0.19 µM; in that of `COc1ncc(-n2ccc(NC(=O)C3(c4ncccc4F)CC3)n2)cc1F` [Compound 452, N-[1-(5-fluoro-6-methoxy-3-pyridyl)pyrazol-3-yl]-1-(3-fluoro-2-pyridyl)cyclopropanecarboxamide], 0.054 µM; in that of `Cc1ccc(F)c(C2(C(=O)Nc3ccn(-c4ccnc(F)c4)n3)CC2)c1Cl` [Compound 272, 1-(2-chloro-6-fluoro-3-methyl-phenyl)-N-[1-(2-fluoro-4-pyridyl)pyrazol-3-yl]cyclopropanecarboxamide], 0.46 µM.
On the same count and under the same terms, in the case of `O=C(Nc1ccn(-c2cnccn2)n1)C1(c2ccccc2F)CC1` [Compound 215, 1-(2-fluorophenyl)-N-(1-pyrazin-2-ylpyrazol-3-yl)cyclopropanecarboxamide] it was 0.61 µM.
On the same count and under the same terms, in the case of `O=C(Nc1ccn(-c2ccccc2)n1)C1(c2c(F)cccc2Cl)CC1` [Compound 275, 1-(2-chloro-6-fluoro-phenyl)-N-(1-phenylpyrazol-3-yl)cyclopropanecarboxamide] it was 0.05 µM; in that of `O=C(Nc1ccn(-c2cccnc2)n1)C1(c2ccccc2)CC1` [Compound 234, 1-phenyl-N-[1-(3-pyridyl)pyrazol-3-yl]cyclopropanecarboxamide], 0.029 µM.
Take `Cc1nc(C)c(-n2ccc(NC(=O)C3(c4ccccc4F)CC3)n2)s1` [Compound 413, N-[1-(2,4-dimethylthiazol-5-yl)pyrazol-3-yl]-1-(2-fluorophenyl)cyclopropanecarboxamide]: the 50% inhibitory concentration (IC50) was more than 5 µM.
Same read-out and setting: for `O=C(Cc1ccc(OC(F)(F)F)cc1)Nc1ccn(-c2ccccc2)n1` [Compound 53, N-(1-phenylpyrazol-3-yl)-2-[4-(trifluoromethoxy)phenyl]acetamide] the value was more than 5 µM.
Still for that read-out and setting: for `[2H]C([2H])([2H])Oc1ncc(-n2ccc(NC(=O)C3(c4ccccc4F)CC3)n2)cc1F` [Compound 441, 1-(2-fluorophenyl)-N-[1-[5-fluoro-6-(trideuteriomethoxy)-3-pyridyl]pyrazol-3-yl]cyclopropanecarboxamide] the value was 0.044 µM.
For the molecule `O=C(Nc1ccn(-c2ccc(F)c(F)c2)n1)C1(c2ccccc2F)CC1` [Compound 190, N-[1-(3,4-difluorophenyl)pyrazol-3-yl]-1-(2-fluorophenyl)cyclopropanecarboxamide], the IC50 came out at 0.15 µM.
Consider `N#Cc1cccc(C2(C(=O)Nc3ccn(-c4ccnc(F)c4)n3)CC2)c1` [Compound 243, 1-(3-cyanophenyl)-N-[1-(2-fluoro-4-pyridyl)pyrazol-3-yl]cyclopropanecarboxamide], for which the IC50 came to 0.31 µM.
The same measure, in the same setting: in the case of `Cn1ccc(-n2ccc(NC(=O)C3(c4ccccc4F)CC3)n2)n1` [Compound 229, 1-(2-fluorophenyl)-N-[1-(1-methylpyrazol-3-yl)pyrazol-3-yl]cyclopropanecarboxamide] it was 3.5 µM; in that of `O=C(Cc1cccc(F)c1)Nc1ccn(-c2ccccc2)n1` [Compound 49, 2-(3-fluorophenyl)-N-(1-phenylpyrazol-3-yl)acetamide], 1.9 µM; in that of `Cc1ccc(C)c(CC(=O)Nc2ccn(-c3ccccc3)n2)c1` [Compound 55, 2-(2,5-dimethylphenyl)-N-(1-phenylpyrazol-3-yl)acetamide], more than 5 µM.
On the same count and under the same terms, for `CC(C)Cc1ccc(C(C)C(=O)Nc2ccn(-c3ccccc3)n2)cc1` (stereo not shown) [Compound 78, 2-(4-isobutylphenyl)-N-(1-phenylpyrazol-3-yl)propanamide] the value was more than 5 µM; for `Cc1cccc(C2(C(=O)Nc3ccn(-c4ccccc4)n3)CC2)c1` [Compound 32, 1-(m-tolyl)-N-(1-phenylpyrazol-3-yl)cyclopropanecarboxamide], 0.65 µM.

Staying with this assay, now noted: Homo sapiens, HEK293, read-out: Average HEK293 IC50.
On to `O=C(Nc1ccn(-c2ccnc(F)c2)n1)C1(c2ccccc2)CC1(F)F` (racemic) [Compound 169, 2,2-difluoro-N-(1-(2-fluoropyridin-4-yl)-1H-pyrazol-3-yl)-1-phenylcyclopropane-1-carboxamide], for which the IC50 was 0.052 µM.

Still in this assay, the particulars now being: average of one or more replicates; 13C-labeled C26:0 LPC, 48 hours; read-out: Average HEK293 IC50.
With `O=C(Nc1ccn(-c2cncc(F)c2)n1)C1(c2ccccc2)CC1(F)F` (single isomer, unassigned) [Compound 436], the IC50 was 0.18 µM.
